For series [1], the system named is Ctenocephalides felis. In a few lines: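 Adult cat fleas (3–7 days post-emergence), 15 per flask in ≥4 replicates, exposed to a dried acetone residue at 1.26 μg/cm^2 on a Coatasil-treated glass flask base. Held at 25±1° C, 75±5% humidity; mortality (immobile or unable to right) scored at 8, 24 and/or 48 h.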
A further series has as its system Rhipicephalus sanguineus. The series can be described thus: Rapid screening protocol for topical application on brown dog ticks (% mortality). The protocol:
d) Rapid Screening Protocol for Topical Application on Brown Dog Ticks (Rhipicephalus sanguineus)
The aim of the test was to determine the presence of significant acaricidal activity in sample compounds or formulations when applied topically on brown dog ticks. A tick was defined as dead if it gave no apparent response when touched lightly and observed for 1 minute. To assess the experimental compound for acaricidal activity, a single dose level was chosen based on known results from previous experiments with a commercially available active reference compound. Both permethrin and fipronil were employed as reference compounds. The insect species tested was the Brown Dog Tick (Rhipicephalus sanguineus). Mixed sex adult ticks were used for tests. The strain used was cultured by von Berky Veterinary Services, Woody Point, QLD, AU and supplied as unfed adult ticks (mixed sex). Ticks were maintained in controlled conditions (temp. 18°±2° C., humidity 75±5% RH).
Test compounds (formulations or active ingredients) were stored in a refrigerator (5±1° C.) unless otherwise specified. Temperature was maintained at 25±1° C. and the humidity was ambient. The screening dose chosen was higher than that known to kill 90% of insects (LD90) using the reference compound. In the case of topical application of active compounds on adult ticks, the reference compound was fipronil and the dose chosen was 10 μg of active per tick (=10 μg of fipronil/1 μl of acetone). Ticks were each treated on the abdomen with 1 μL of a single dose level of test sample in acetone; ten ticks were treated with solvent only (acetone) in each test. Tests were replicated 4 times (total of 40 ticks treated). Ticks were held in recovery containers maintained under appropriate rearing conditions for 24 hours. Mortality resulting from the treatments was recorded at 24 hours. Pooled 24 hour mortality data were converted to percentages.

For series [2], the system named is Ctenocephalides felis. The series can be described thus: Ctenocephalides felis adulticide assay: C. felis dose response (LC50). An excerpt:
c) Ctenocephalides felis Adulticide Assay: C. felis Dose Response
The purpose of this example was to determine the LC50 when cat fleas were contacted with a glass surface treated with sample compounds or formulations prepared as described above. […] The test species was the cat flea (Ctenocephalides felis). The strain used was obtained from external suppliers as pupae and held in the laboratory under testing conditions until the adults had emerged. Fifteen (15) fleas were used in a minimum of four replicates for each dose level (total of 60 fleas per dose level). The insects were selected to be in the adult life stage, aged between 3 and 7 days post emergence.
The compounds to be tested were dissolved in acetone just prior to testing. Samples of compounds were stored in a refrigerator (5±1° C.) unless otherwise specified. During the mortality testing, the temperature was maintained at 25±1° C. Humidity was maintained at 75±5%. The base (area=159 mm^2) of a 100 mL glass Erlenmeyer (conical) flask provided the treatment surface. Flasks were pretreated with Coatasil™ glass treatment to maximise bio-availability of test compounds by preventing them from binding to the glass surface.
The base of the 100 mL Erlenmeyer flask was treated with 0.5 mL of test sample in acetone and gently swirled. This volume was sufficient to cover the base of the flask. Flasks were left to dry for 24 hours before flea exposure. Adult cat fleas were lightly anaesthetised by cooling and then placed into a sorting chamber, which allowed fleas to revive and jump into the Erlenmeyer flasks. Fifteen (15) adult cat fleas were collected in each flask. The top of the flasks were then covered in Parafilm™ and small holes made to allow gas exchange. A 0.5 mL volume of acetone was applied to the base of an Erlenmeyer flask and the testing proceeded in the same manner described above. Cat fleas in the treatment containers were held under testing conditions for 24 hours. Mortality resulting from the treatments was recorded at 8 and 24 hours.

Like-named read-outs stand apart in the source and are kept apart here.

Consider `CC(=NN(C)c1ccccc1)c1cc(Cl)ccc1N(C)S(=O)(=O)C(F)(F)F` [Compound 109, N-[2-[1-(N′-methyl-N′-phenyl)hydrazono]ethyl-4-chlorophenyl]-N-methyl-trifluoromethanesulfonamide], for which, in the series with Ctenocephalides felis [1], the “C. felis Mortality (%) 8 h” value came to 73% and the “C. felis Mortality (%) 24 h” value came out at 100%. The “R. sanguineus Mortality (%) 24 h” value in the series with Rhipicephalus sanguineus (data from laboratory 2) is on record as 8%.
Consider `CC(=NN(c1ccc(C(F)(F)F)cc1)C(C)C)c1cc(Cl)ccc1NS(=O)(=O)C(F)(F)F` [Compound 47], for which, in the series with Ctenocephalides felis [1], the “C. felis Mortality (%) 8 h” value was 14% and the “C. felis Mortality (%) 24 h” value came to 100%. The “R. sanguineus Mortality (%) 24 h” value in the series with Rhipicephalus sanguineus (data from laboratory 2) stood at 58%.
The matching figures for `CCOCN(c1ccc(Cl)cc1C(C)=NN(C)c1ccccc1)S(=O)(=O)C(F)(F)F` [Compound 112]: 99%, 100% and 5%.
Turning to `CCCN(N=C(C)c1cc(Cl)ccc1NS(=O)(=O)C(F)(F)F)c1ccc(Cl)c(Cl)c1` [Compound 97], in the series on Ctenocephalides felis [1], the “C. felis Mortality (%) 8 h” value turned out to be 52% and the “C. felis Mortality (%) 24 h” value came to 100%. The “R. sanguineus Mortality (%) 24 h” value with Rhipicephalus sanguineus (data from laboratory 2) turned out to be 73%.
Consider `CCN(N=C(C)c1cc(Cl)ccc1N(C)S(=O)(=O)C(F)(F)F)c1ccccc1F` [Compound 44], for which, in the series with Ctenocephalides felis [1], the “C. felis Mortality (%) 24 h” value came to 3% and the “C. felis Mortality (%) 48 h” value was found to be 22%. Besides, in the series on Rhipicephalus sanguineus (data from laboratory 2), the “R. sanguineus Mortality (%) 24 h” value stood at 3%.
As for `CC(=NN(c1ccccc1Cl)C(C)C)c1cc(Cl)ccc1NS(=O)(=O)C(F)(F)F` [Compound 56], in the series on Ctenocephalides felis [1], the “C. felis Mortality (%) 8 h” value is listed as 51% and the “C. felis Mortality (%) 24 h” value is recorded as 99%. For the same compound, the “R. sanguineus Mortality (%) 24 h” value with Rhipicephalus sanguineus (data from laboratory 2) came out at 45%.
For `CC(=NN(C)c1ccccc1)c1ccc(C(F)(F)F)cc1NS(=O)(=O)C(F)(F)F` [Compound 120, N-[2-[1-(N′-methyl-N′-phenyl)hydrazono]-ethyl-5-trifluoromethylphenyl]-trifluoromethanesulfonamide] the same measures were 28%, 83% and 58%.
As to `CC(=NN(c1ccc(Cl)cc1)C(C)C)c1cc(Cl)ccc1NS(=O)(=O)C(F)(F)F` [Compound 33], in the series on Ctenocephalides felis [1], the “C. felis Mortality (%) 24 h” value was 86% and the “C. felis Mortality (%) 48 h” value is 100%. The “R. sanguineus Mortality (%) 24 h” value with Rhipicephalus sanguineus (data from laboratory 2) stood at 88%.
Consider `CCC(=NN1CCCCCC1)c1cc(Cl)ccc1NS(=O)(=O)C(F)(F)F` [Compound 131], for which, in the series with Ctenocephalides felis [1], the “C. felis Mortality (%) 8 h” value was determined as 43% and the “C. felis Mortality (%) 24 h” value came to 100%. In addition, the “R. sanguineus Mortality (%) 24 h” value in the series with Rhipicephalus sanguineus (data from laboratory 2) is 98%.
Take `CC(=NN(C)c1ccc(Br)cc1)c1cc(Cl)ccc1NS(=O)(=O)C(F)(F)F` [Compound 63]: in the series on Ctenocephalides felis [1], the “C. felis Mortality (%) 8 h” value stood at 100% and the “C. felis Mortality (%) 24 h” value is 100%. The “C. felis LC50” value with Ctenocephalides felis [2] was 2.4 ppm. Moreover, in the series with Rhipicephalus sanguineus (data from laboratory 2), the “R. sanguineus Mortality (%) 24 h” value was 100%.
With `CCCN(N=C(C)c1cc(Cl)ccc1NS(=O)(=O)C(F)(F)F)c1cc(Cl)cc(Cl)c1` [Compound 98], in the series on Ctenocephalides felis [1], the “C. felis Mortality (%) 8 h” value came to 19% and the “C. felis Mortality (%) 24 h” value came to 98%. Further, the “R. sanguineus Mortality (%) 24 h” value in the series on Rhipicephalus sanguineus (data from laboratory 2) is given as 60%.
As to `CC(=NN(Cc1ccccc1)c1ccccc1)c1cc(Cl)ccc1NS(=O)(=O)C(F)(F)F` [Compound 22], in the series with Ctenocephalides felis [1], the “C. felis Mortality (%) 8 h” value came to 98% and the “C. felis Mortality (%) 24 h” value is 100%. In the series on Rhipicephalus sanguineus (data from laboratory 1), the “R. sanguineus Mortality (%) 24 h” value was 33^A %.
As for `CCCN(N=C(C)c1cc(Cl)ccc1NS(=O)(=O)C(F)(F)F)c1ccc(Br)cc1` [Compound 53], in the series on Ctenocephalides felis [1], the “C. felis Mortality (%) 8 h” value was determined as 71% and the “C. felis Mortality (%) 24 h” value worked out at 100%. Besides, the “R. sanguineus Mortality (%) 24 h” value in the series on Rhipicephalus sanguineus (data from laboratory 2) came out at 50%.
The matching figures for `CC(=NN(c1cccc(F)c1)C(C)C)c1cc(Cl)ccc1NS(=O)(=O)C(F)(F)F` [Compound 77]: 91%, 100% and 73%.
Turning to `CCCN(N=C(C)c1cc(Cl)ccc1NS(=O)(=O)C(F)(F)F)c1c(Cl)cccc1Cl` [Compound 103], in the series on Ctenocephalides felis [1], the “C. felis Mortality (%) 8 h” value came to 56% and the “C. felis Mortality (%) 24 h” value stood at 100%. Moreover, in the series with Rhipicephalus sanguineus (data from laboratory 2), the “R. sanguineus Mortality (%) 24 h” value amounted to 40%.
The matching figures for `CCCN(N=C(C)c1cc(Cl)ccc1NS(=O)(=O)C(F)(F)F)c1ccc(F)cc1` [Compound 104]: 16%, 100% and 75%.
For `CC(=NN(C)c1ccc(C)cc1)c1cc(Cl)ccc1NS(=O)(=O)C(F)(F)F` [Compound 75], in the series with Ctenocephalides felis [1], the “C. felis Mortality (%) 8 h” value is 100% and the “C. felis Mortality (%) 24 h” value was found to be 100%. For the same compound, the “C. felis LC50” value in the series with Ctenocephalides felis [2] came out at 1.4 ppm. Also, the “R. sanguineus Mortality (%) 24 h” value with Rhipicephalus sanguineus (data from laboratory 2) was 100%.
On to `C/C(=N\N(CCC#N)C(=O)C(C)C)c1cc(Cl)ccc1NS(=O)(=O)C(F)(F)F` [Compound 223], for which, in the series on Ctenocephalides felis [1], the “C. felis Mortality (%) 8 h” value is on record as 45% and the “C. felis Mortality (%) 24 h” value came out at 100%. Moreover, in the series with Rhipicephalus sanguineus (data from laboratory 2), the “R. sanguineus Mortality (%) 24 h” value worked out at 100%.
As for `CCC(=NN(Cc1ccccc1)c1ccccc1)c1cc(Cl)ccc1NS(=O)(=O)C(F)(F)F` [Compound 24], in the series on Ctenocephalides felis [1], the “C. felis Mortality (%) 8 h” value came out at 100% and the “C. felis Mortality (%) 24 h” value was 100%. The “R. sanguineus Mortality (%) 24 h” value in the series on Rhipicephalus sanguineus (data from laboratory 1) is reported as 28^A %.
Consider `CC(=NN(c1ccccc1)C(C)C)c1cc(Cl)ccc1NS(=O)(=O)C(F)(F)F` [Compound 28], for which, in the series on Ctenocephalides felis [1], the “C. felis Mortality (%) 24 h” value is 100% and the “C. felis Mortality (%) 48 h” value is recorded as 100%. Moreover, the “R. sanguineus Mortality (%) 24 h” value in the series with Rhipicephalus sanguineus (data from laboratory 2) came out at 68%.
With `CC(=NN(c1cccc(Cl)c1Cl)C(C)C)c1cc(Cl)ccc1NS(=O)(=O)C(F)(F)F` [Compound 66], in the series with Ctenocephalides felis [1], the “C. felis Mortality (%) 8 h” value turned out to be 18% and the “C. felis Mortality (%) 24 h” value came to 100%. In the series with Rhipicephalus sanguineus (data from laboratory 2), the “R. sanguineus Mortality (%) 24 h” value was 48%.
For `CC(=NN(c1cccc(Cl)c1)C(C)C)c1cc(Cl)ccc1NS(=O)(=O)C(F)(F)F` [Compound 50] the same measures were 61%, 100% and 68%.
With `CCN(N=C(C)c1cc(Cl)ccc1NS(=O)(=O)C(F)(F)F)c1ccccc1Cl` [Compound 37], in the series with Ctenocephalides felis [1], the “C. felis Mortality (%) 24 h” value was found to be 89% and the “C. felis Mortality (%) 48 h” value worked out at 100%. The “R. sanguineus Mortality (%) 24 h” value in the series on Rhipicephalus sanguineus (data from laboratory 2) was determined as 83%.
For the compound `CC(=NNc1ccc(F)cc1)c1ccccc1NS(=O)(=O)C(F)(F)F` [Compound 178], in the series on Ctenocephalides felis [1] (8 h, data from laboratory 1), the “C. felis Mortality (%) 8 h” value is 4%. The “C. felis Mortality (%) 24 h” value with Ctenocephalides felis [1] (24 h, data from laboratory 1) amounted to 29%.
Turning to `O=S(=O)(Nc1ccc(Cl)cc1C1=NN(c2ccccc2)CC1)C(F)(F)F` [Compound 229, N-[4-Chloro-2-(1-phenyl-4,5-dihydro-1H-pyrazol-3-yl)-phenyl]-trifluoromethanesulfonamide], the “C. felis Mortality (%) 8 h” value in the series on Ctenocephalides felis [1] (8 h) was 18%. Moreover, in the series with Ctenocephalides felis [1] (24 h), the “C. felis Mortality (%) 24 h” value worked out at 37%.
In the case of `CC(=NN(C)C)c1ccccc1NS(=O)(=O)C(F)(F)F` [Compound 124], in the series on Ctenocephalides felis [1], the “C. felis Mortality (%) 8 h” value is recorded as 59% and the “C. felis Mortality (%) 24 h” value is 94%. Also, the “R. sanguineus Mortality (%) 24 h” value with Rhipicephalus sanguineus (data from laboratory 2) came to 88%.
The matching figures for `CC(=NN(C)c1ccc(C(F)(F)F)cc1)c1cc(Cl)ccc1NS(=O)(=O)C(F)(F)F` [Compound 65, N-[2-[1-(N′-methyl-(4-trifluoromethyl)phenyl)hydrazono]-ethyl-4-chlorophenyl]-trifluoromethanesulfonamide]: 100%, 100% and 100%.

Values taken from patent publication US20070238700A1, “N-PHENYL-1,1,1-TRIFLUOROMETHANESULFONAMIDE HYDRAZONE DERIVATIVE COMPOUNDS AND THEIR USAGE IN CONTROLLING PARASITES” (priority 2006, published 2007).
